Reference: PMC8773213, “In Vitro Anticancer Activity and Mechanism of Action of an Aziridinyl Galactopyranoside” (Biomedicines, 2021)

Legend:
[1] = tested on: MRC-5 (Human lung non-malignant cells); experiment: Resazurin cell viability assay, MRC-5; format: cell-based; settings: MRC5, 72 h, read-out: IC50 (Mean ± SEM, µM), MRC-5
Protocol: (§1) Exponentially growing cells were seeded in 96-well plates and allowed to attach and grow for 24 h. The cells were then treated with increasing concentrations of the tested drugs. At the end of the treatment period, cell viability was measured with the MTT assay or the resazurin assay, two widely used techniques.
(§2) The resazurin assay is a redox-based colorimetric/fluorometric technique based on the ability of viable cells to reduce the blue compound resazurin into the pink, fluorescent and soluble product resorufin. The amount of resorufin produced is generally proportional to the number of living cells. In this assay, 24 h after seeding, cells were exposed to the tested drugs for 72 h. Then 100 μL resazurin in medium was added to each well (final concentration of 10 μg/mL) and, one hour later the fluorescence intensity was measured at 530/590 nm (excitation/emission) using a fluorescence microplate reader.
(§3) In both assays, cell viability was expressed as percentage compared to untreated cells. Results were expressed as the means ± standard error of the mean (SEM). All data are from at least three independent experiments.

[2] = tested on: AA8 cells; experiment: Comet assay (DNA damage); format: cell-based, Chinese hamster; settings: 4 h
Description: The single cell gel electrophoresis assay, also known as comet assay, is a widely used technique for the study of levels of damage in cellular DNA. In this assay, individual cells embedded in agarose are lysed, electrophoresed, stained with a fluorescent dye and examined under an epifluorescence microscope. […] The quantity of DNA present in the tail is indicative of DNA damage. This assay has been described in detail by Singh et al.. We followed this protocol with minor modifications previously described. Briefly, standard slides were immersed in 1% normal melting agarose at 55 °C, left to allow the agarose to solidify and kept at 4 °C until use. Cells were seeded in 6-well plates, allowed to grow for 24 h and then cells were exposed to AzGalp or CTP (positive control) for 4 h. At the end of the treatment, cells were harvested by trypsinization, washed with PBS and resuspended in PBS at a concentration of approximately 1 million cells/mL; 10 µL cell suspension was mixed with 85 μL of low-melting agarose (LMA) at 37 °C and the mixture was quickly added to the slides with the first layer of agarose, spread using a coverslip and kept at 4 °C for 8 min to allow the LMA to solidify. The coverslips were then removed and another layer of 100 μL of LMA at 37 °C was added, covered with a coverslip and allowed to solidify at 4 °C for 8 min. After removing the coverslips, the slides were incubated in the dark for 1 h at 4 °C in a lysis buffer (pH 10.0) containing 0.25 M NaOH, 10% DMSO, 1% Triton X-100, 10 mM Tris-HCl, 100 mM Na2-EDTA and 2.5 M NaCl. Next, alkaline denaturation with electrophoretic buffer (300 mM NaOH and 1 mM Na2-EDTA) was carried out in an electrophoresis chamber for 20 min and then electrophoresis was performed at 1 V/cm for 20 min. […] DNA damage levels were quantified for each cell and expressed as percent of DNA in the tail and as the tail moment (defined as the product of the tail length and the fraction of total DNA in the tail). The results were averaged from two independent experiments and expressed as mean ± SEM.

[3] = tested on: A549 human lung cancer cell line and MRC-5 human lung normal cell line; design: method as in PMID 24177365; settings: MTT assay; cited from earlier work
[4] = tested on: BJ-RASV12 (HRASV12-transformed BJ-SV40T cells); experiment: Resazurin cell viability assay, BJ-RASV12; format: cell-based, human; settings: 72 h
Protocol: as §1, §2, §3

[5] = tested on: MRC-5 lung normal cells; experiment: MTT cytotoxicity of combinations, MRC-5; format: cell-based; settings: 48 h
Protocol: as §1
In the case of the MTT assay, this technique detects viable cells using the ability of these cells to reduce the yellow tetrazolium MTT to an insoluble colored formazan product. Subsequently, this product was solubilized and analyzed by spectrophotometry. Dead cells cannot reduce the MTT into the colored formazan product. Briefly, 24 h after plating, cells were treated with the tested compounds for 48 h; except in experiments with DNA repair-proficient and -deficient cell lines, in which cells were only exposed for 24 h to drugs and allowed to grow for an additional 48 h in drug-free medium to allow them to repair possible DNA damage induced by the tested drugs. […] Finally, plates were incubated overnight at 37 °C and optical densities were measured at 540 nm using an absorbance spectrophotometer microplate reader.
In both assays, cell viability was expressed as percentage compared to untreated cells. Results were expressed as the means ± standard error of the mean (SEM). […]

[6] = tested on: A549 cells; experiment: Glycolysis inhibition (glucose consumed, lactate produced); format: cell-based, human; settings: A549, 8 h
Protocol: Inhibition of glycolysis was determined by measuring glucose consumed (initial product of glycolysis) and lactate produced (final product of glycolysis) in untreated and treated cells. Cells were seeded in 6-well plates at a density of 10^6 cells/well and were allowed to attach for a few hours before treatment with the tested compounds for 8 h. After treatment, medium was recollected and glucose and lactate concentrations were determined using the Accutrend® Plus analyzer together with Accutrend glucose strips and BM-Lactate strips (Roche Diagnostics, Barcelona, Spain). After calibrating the instrument with glucose and lactate calibration strips, test strips were used to determine glucose and lactate levels through colorimetric oxidase mediator reactions according to the manufacturer’s instructions. The results are expressed as percentage of glucose consumption and percentage of lactate production in relation to untreated cells. Data were averaged from two independent experiments and shown as mean ± SEM.

Cc1ccc(S(=O)(=O)N2CC2(C)CO[C@@H]2O[C@@H]3CO[C@H](c4ccccc4)O[C@@H]3[C@H](OCc3ccccc3)[C@H]2OCc2ccccc2)cc1 (stereo partly drawn) [AzGalp, 2-methyl-2,3-[N-(4-methylbenzenesulfonyl)imino]propyl 2,3-di-O-benzyl-4,6-O-(S)-benzylidene-β-D-galactopyranoside]
IC50 [1]: 341 ± 85 µM
Level of DNA damage in comet assay ([2]; 50 µM AzGalp versus 10 µM CPT): lower than that of the DNA-damaging agent CPT
Cells with higher levels of DNA damage than untreated cells ([2]; 50 µM): approximately 30%
Cytotoxicity against A549 lung cancer cells relative to MRC-5 lung normal cells [3]: approximately six times more cytotoxic
Sensitivity of BJ-RASV12 malignant cells relative to BJ-hTERT non-malignant cells ([4]; resazurin): three times more sensitive
IC50 ([4]; Homo sapiens, resazurin assay, read-out: IC50 (Mean ± SEM, µM), BJ-RASV12): 76.3 ± 17.8 µM
Cytotoxicity of combination with 5-FU, normal cells ([5]; 100 μM AzGalp + 10 μM 5-FU): did not increase cytotoxicity against normal cells
Cytotoxicity of combination with oxaliplatin, normal cells ([5]; 100 μM AzGalp + 10 μM oxaliplatin): did not increase cytotoxicity against normal cells
Glycolytic activity (glucose consumption and lactate production) [6]: did not affect the glycolytic activity
